Here are results for 1 compound from patent publication US20080199847A1, “Method for Predicting the Metabolism of Drug in Human Liver and Liver Function” (Daiichi Pure Chemicals Co., Ltd., priority 2004, published 2008).

“And” between values parts separate entries of the source, which are not always exact repeats. Equal values may be shown once.

The series is described as follows: Radioactivity levels of tissue and plasma samples two hours after administration. The conditions noted are these: 5 mg/kg iv. On the procedure:
Chimeric mice from PhoenixBio Co., Ltd. were employed.
The pH of the solution was adjusted to 7.0 with a 0.1% aqueous citric acid solution, and the concentration was adjusted to 1 mg/mL with distilled water for injection. The liquid was bolus-administered at 5 mL/kg to the caudal vein of the mice (5 mg/5 mL/kg).
Livers and kidneys were taken from other mice two hours after administration, following sacrificing through exsanguination. Blood plasma was collected by sampling blood through the orbital venousplexus and centrifuging it. Bile was collected from the chimeric mice and the control mice through bile duct cannulation until 72 hours after administration.
Radioactivity of each sample was determined by use of a liquid scintillator (Hionic-flow, product of Perkin-Elmer) with Tri-Carb 2500 (Perkin-Elmer) as a liquid scintillation counter. The measurement was performed for two minutes.
In analysis of blood plasma, bile, and urine, the sample (10 μL) was collected in a 20-mL glass vial, added Hionic-flow (10 mL), and the mixture was analyzed.
In analysis of tissue samples (liver and kidney), an amount 3-fold (by weight) of acetate buffer (0.1M, pH3.0) was added to each sample, and the mixture was homogenized with a polytron-homogenizer. An aliquot (50 μL) of the homogenate was solubilized with 2 mL of Soluene 350 (Perkin-Elmer), added Hionic-flow (10 mL), and the mixture was analyzed.

With `CC(C(=O)O)c1cccc(C(=O)c2ccccc2)c1` (centres unmarked) [ketoprofen, Ketoprofen], the “Concentration (radioactivity level), kidney” value runs as follows: (chimeric mice) 5.03±1.25 μg eq./mL and 5.03 μg eq./mL; (control mice) 4.70±0.61 μg eq./mL and 4.70 μg eq./mL.
